From patent publication US11311610B2, “Immune-modulating agents and uses therefor” (UNIVERSITY OF TECHNOLOGY SYDNEY, priority 2010, dated 2022)

What was measured:
[1] = tested on: interaction of LPS with LPS-binding protein (LBP); test: Assay for the interaction of LPS with LBP (ELISA); design: species or system mouse; settings: 5 μg/well, 1 h before 10% sera; ELISA with anti-LBP
Experimental: (§1) FIG. 9 is a graphical representation showing LPS neutralization by FhHDM-1. The ability of FhHDM-1 (Δ), FhHDM-1 p1 (●) or FhHDM-1 p3 (▪) to bind to LPS was investigated by (A) incubating a range of concentrations of proteins (0.02-2 μg/well) in an LPS-coated (100 ng/well) microtitre plate. Bound peptides were detected by ELISA using rabbit anti-FhHDM-1 as a primary antibody. (B) FhHDM-1 or derived peptides (0.1 μg) were incubated in the presence of LPS (0.05-5 μg/well) and bound peptides measured as described above. Binding of peptides to the LPS-immobilized plates was expressed as a percentage of that measured for 2 μg (for panel A) or 0.1 μg (for panel B) of FhHDM-1. Data are the means±SD from three separate experiments. (C) FhHDM-1 and FhHDM-1 p3 but not FhHDM-1 p1 reduced the interaction between LPS and LBP as effectively as LL-37. LPS-coated microtitre plates were incubated with 5 μg/well of LL-37, FhHDM-1 or derived peptides for 1 h prior to the addition of 10% human sera in PBS. Interaction of LBP with LPS was measured by ELISA using an anti-LBP primary antibody and expressed as a percentage of that detected for 10% sera in the absence of added peptides. Data are the mean±SD of three separate experiments. Statistical significance was calculated using the student t-test and represent a comparison to the binding of 10% sera to immobilized LPS. (D) Binding of FITC-conjugated LPS to RAW264.7 cells was inhibited by LL-37, FhHDM-1 and peptides. […] The binding of FITC-LPS was analyzed by flow cytometry. LPS binding was expressed as a percentage of the mean fluorescence obtained for the addition of FITC-LPS to cells in the absence of peptides. […] Two hours later, sera was collected and serum levels of TNF and (F) IL-10 measured by ELISA. (G) Peritoneal macrophages were isolated, cultured unstimulated in media overnight and then levels of TNF and (H) IL-10 in the culture measured by ELISA. […]
The ability of FhHDM-1 and derived peptides to block the interaction of LPS with LPB was assessed by ELISA using an anti-LBP primary antibody. […]

RAW264.7 cells = test: Binding of FITC-conjugated LPS to RAW 264.7 cells (flow cytometry); type: cell-based, murine; settings: 0.1-10 μg/mL, 20 min at 4° C.
Experimental: as §1
The effect of FhHDM-1 and derived peptides on the binding of FITC-LPS to CD14+ cells was determined by flow cytometry of the murine macrophage cell line RAW264.7. […]

[2] = tested on: ATPase activity associated with lysosomal membranes (equivalent to vATPase activity); test: ATPase activity of enriched lysosomal membranes; type: biochemical, murine; settings: lysosomal membranes from RAW264.7 macrophage lysates
Experimental: FIG. 17 is a graphical representation showing that FhHDM-1 P3 inhibits ATPase activity associated with lysosomal membranes in a concentration-dependent manner. A cellular fraction enriched for lysosomes was prepared by sequential centrifugation of RAW264.7 macrophage lysates. The lysosomal membranes were recovered and assayed (with or without HDM peptides) for ATPase activity using a commercially available kit.
FIG. 18 is a diagrammatic representation showing a sequence alignment of various synthetic HDM peptides. The amphipathic helix is shaded in grey as are the mutated residues in peptides nonHP and 2Pro. NonHP is a variant of FhHDM-1 P3 in which the hydrophobic face of the FhHDM-1 amphipathic helix was removed. 2Pro is a variant of FhHDM-1 P3 in which two prolines substitutions were incorporated to disrupt the alpha-helix. Cons_p3 is a consensus peptide corresponding to various FhHDM-1 homologs. All peptides in the alignment were tested for their ability to inhibit the ATPase activity associated with enriched lysosomal membranes (prepared from RAW macrophages). Those with inhibitory activity are shown in bold text.
A cellular fraction enriched for lysosomes was prepared by sequential centrifugation of RAW264.7 macrophage lysates. The lysosome pellet was extracted with water and the resulting lysosomal membranes were recovered and assayed (with or without HDM peptides) for ATPase activity using a commercially available kit.

Row | Molecule | interaction between LPS and LBP [1] | binding of FITC-LPS to RAW264.7 macrophages (RAW264.7 cells) | ATPase activity associated with lysosomal membranes [2]
1 | KARDRAMAYLAKDNLGEKITEVITILLNRL (FhHDM-1 peptide 1 comprising a truncated amphipathic helix contained in FhHDM-1) [FhHDM-1 p1, peptide in which the amphipathic helix is truncated] | did not block | reduced binding of FITC-LPS to the cells in a dose-dependent manner albeit to a lesser extent | did not inhibit ATPase activity
2 | FhHDM-1: 90-residue polypeptide from F. hepatica, Helminth Defense Molecule-1 (SEQ ID NO:24); recombinant form minus N-terminal signal peptide, expressed in E. coli (protein, listed as Fasciola hepatica) MRFIVLLCLAEVLLAAYVEARPSEESREKLRESGRKMVKALRDAVTKAYEKARDRAMAYLAKDNLGEKITEVITILLNRLTDRLEKYAGN | significantly reduced | reduced binding of FITC-LPS to the cells in a dose-dependent manner albeit to a lesser extent | did not inhibit ATPase activity
